Several values for one entry are separate records, joined by “and”; a condition that tells them apart may be missing. Equal entries are not always repeated.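 Exposure lasted 48 hours, with cells grown in 96-well plates and compounds tested at five concentrations. Here, GI50 denotes the concentration required for 50% inhibition of growth. TGI is the concentration that stops growth completely.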
Tests used:
Assay in all cases: NCI tumour cell line growth inhibition, 48 h
[1] = system: HS 578T breast
[2] = system: 786-0 renal
[3] = system: HCT-15 colon
[4] = system: NCI-H460 lung
[5] = system: UACC-62 melanoma
[6] = system: SK-MEL-28 melanoma
[7] = system: MALME-3M melanoma
[8] = system: NCI-H226 lung
[9] = system: UO-31 renal
[10] = system: OVCAR-5 ovarian
[11] = system: ACHN renal

SMILES | TGI [1] [µM] | TGI [2] | TGI [3] [µM] | TGI [4] | TGI [5] | TGI [6] | TGI [7] | TGI [8] | TGI [9] | TGI [10] | TGI [11] | GI50 [4] | GI50 [5] | GI50 [6] | GI50 [10] | GI50 [7] | GI50 [11] | GI50 [1] [µM] | GI50 [3] [µM] | GI50 [9] [µM]
N#C/C(=C(/O)CCl)c1nc2ccccc2o1 | > 100 | 41.3 µM | 4.46 | 14.3 µM | 6.27 µM | 3.5 µM | 29.1 µM | 5.07 µM | 12.7 µM | – | – | – | – | – | – | – | – | – | – | –
O=P(NCCCO)(OCc1ccccc1)N(CCCl)CCCl (centres undefined) | – | – | > 100 | > 100 µM | > 100 µM | > 100 µM | > 100 µM | > 100 µM | > 100 µM | > 100 µM | – | – | – | – | – | – | – | – | – | –
O=[N+]([O-])c1ccc(N=Nc2c(O)[nH]c3ccccc23)c([N+](=O)[O-])c1 | > 100 | 28.8 µM | 57.9 | 37.4 µM | > 100 µM | > 100 µM | – | 75.5 µM | 36.6 µM | 50.2 µM | 19.2 µM | – | – | – | – | – | – | – | – | –
Nc1nc(SCC(=O)c2ccc(Br)cc2)c2[nH]cnc2n1 | 81.9 | > 100 µM | > 100 | > 100 µM | > 100 µM | > 100 µM | > 100 µM | > 100 µM | > 100 µM | > 100 µM | > 100 µM | – | – | – | – | – | – | – | – | –
C=C1C(O)C2(O)OCC34C(CC5C(C)=CC(=O)C(O)C5(C)C23)OC(=O)C(OC(=O)C/C=C/CCCCCCCC)C14 (centres undefined) | – | – | 0.0979 | – | 0.0292 µM | 0.0311 µM | 0.0229 µM | 0.029 µM | 0.231 µM | 0.773 µM | – | – | – | – | – | – | – | – | – | –
CC(C)CC(N)C(=O)NC(C(=O)NC(CCCNC(=N)N)C(=O)NC(CS)C(=O)NC1CSCC(C(=O)NC(Cc2ccccc2)C(=O)NC(C(=O)NC(CCCNC(=N)N)C(=O)O)C(C)C)NC(=O)C2CCCN2C(=O)C(CCCCN)NC(=O)C2CCCN2C(=O)C2CCCN2C(=O)C(Cc2ccc(O)cc2)NC(=O)C(CO)NC(=O)C(CCCCN)NC(=O)C(C(C)O)NC(=O)C(Cc2c[nH]c3ccccc23)NC1=O)C(C)C (centres undefined) | > 25 | > 25 µM | > 25 | – | > 25 µM | > 25 µM | > 25 µM | > 25 µM | > 25 µM | > 25 µM | > 25 µM | – | – | – | – | – | – | – | – | –
COc1ccc(N2C(=O)C(=O)C3(CCCCC3)C2=O)c2ccccc12 | > 10 | – | > 10 | > 10 µM | > 10 µM | > 10 µM | > 10 µM | > 10 µM | > 10 µM | > 10 µM | > 10 µM | – | – | – | – | – | – | – | – | –
O=C(Nc1ccccc1)Oc1ccc(C(=S)Nc2ccc(Br)cc2)cc1 | > 100 | 52.2 µM | 34.5 | 59.3 µM | 30 µM | 46.4 µM | 65.1 µM | – | – | 46.4 µM | 97.9 µM | – | – | – | – | – | – | – | – | –
CC(=O)c1ccc(Nc2c3ccccc3nc3occc23)cc1 | – | 3.19 µM | > 42.8 | 0.453 µM | 10.7 µM | 50 µM | 29.4 µM | 45.2 µM | > 100 µM | > 100 µM | > 72.5 µM | – | – | – | – | – | – | – | – | –
O=C1c2c(Br)sc(Br)c2[C@@H](O)[C@H]1O | 63.5 | 28.5 µM | 30.1 | 31.8 µM | 30.4 µM | 41 µM | 40.6 µM | 37.7 µM | 32.3 µM | 36.6 µM | 33.5 µM | – | – | – | – | – | – | – | – | –
Cc1ccc(-c2cn3c(nc4ccccc43)c(/C=C/c3ccco3)n2)cc1 | 84.2 | > 100 µM | > 100 | > 100 µM | > 100 µM | > 100 µM | > 100 µM | > 100 µM | > 100 µM | > 100 µM | > 100 µM | – | – | – | – | – | – | – | – | –
COc1ccc(CCn2cncn2)cc1 | – | – | > 100 | > 100 µM | > 100 µM | > 100 µM | – | > 100 µM | > 100 µM | > 100 µM | > 100 µM | – | – | – | – | – | – | – | – | –
O=c1c2cc(O)ccc2n2nnc3ccc(NCCNCCO)c1c32 | – | > 100 µM and 24 µM | > 100 | > 57.4 µM and 23.6 µM | 19.4 µM and 13.3 µM | 22.7 µM and 16.2 µM | 20.5 µM and 11.5 µM | 26.7 µM and 11.5 µM | > 100 µM and 70.2 µM | > 100 µM and 34 µM | > 64.8 µM and 22.1 µM | 28.9 µM and 4.01 µM | 6.87 µM and 3.14 µM | 9.78 µM and 4.3 µM | 22.5 µM and 9.69 µM | 6.02 µM and 2.56 µM | 7.68 µM and 3.58 µM | – | – | –
COc1ccccc1-c1c(C#N)c(N)[nH]c(=S)c1C#N | > 100 | > 100 µM | > 100 | > 100 µM | > 100 µM | > 100 µM | > 100 µM | > 100 µM | > 100 µM | > 100 µM | > 100 µM | – | – | – | – | – | – | – | – | –
CN(C)c1ccc(-c2ccc(-c3ccc(C(=N)N)cn3)o2)cc1 | 4.07 | – | 2.98 | 3.05 µM | 3.34 µM | 3.36 µM | 3.93 µM | – | 2.91 µM | 3.02 µM | 3.13 µM | 1.35 µM | 1.76 µM | 1.76 µM | 1.62 µM | 2.04 µM | 1.75 µM | 1.9 | 1.36 | 1.48

Reference: PubChem BioAssay (NCI)
